Test results from paper PMC4467398, “Preclinical antitumor activity of ST7612AA1: a new oral thiol-based histone deacetylase (HDAC) inhibitor” (Oncotarget, 2014).
“And” between values parts separate entries of the source, which are not always exact repeats. Equal entries are not always repeated. Where two headings read alike, the source gives them in different places.

How the values were obtained:
[1] = test system: acetylation of histone H4 in NCI-H460 NSCLC cells; test: Western blot with densitometry, histone H4 acetylation; format: cell-based, human; details: 5 µM; NCI-H460; vehicle 0,0274
Experimental: (§1) For assessing the in vitro effect of ST7612AA1 on acetylation of α-tubulin and histones, NSCLC cells were treated with the test compound at various concentrations (dose-response curve). SAHA 5 μM was used as reference inhibitor. Protein extraction, separation and immunoblotting were performed as previously described. Immunoreactive bands were finally subjected to densitometry analysis by a phosphoimaging system (STORM, Molecular Dynamics), and then the IC50 values were calculated by the “ALLFIT” computer program. The antibodies used are listed in Supplementary Table 2.

[2] = test system: acetylation of alpha-tubulin in NCI-H460 NSCLC cells; test: Western blot with densitometry, tubulin acetylation; format: cell-based, human; details: 5 µM; NCI-H460; vehicle 0,341
Experimental: as §1

HDAC2 = test system: HDAC2; parameters: method as in PMID 25233084; details: cited from earlier work
HDAC8 = test system: HDAC8; parameters: method as in PMID 25233084; details: cited from earlier work
HDAC6 = test system: HDAC6; parameters: method as in PMID 25233084; details: cited from earlier work
HDAC1 = test system: HDAC1; parameters: method as in PMID 25233084; details: cited from earlier work
[3] = PK sampling and analysis after a single oral dose of ST7612AA1 (plasma, LC-MS/MS); format: in vivo, CD1 mice; details: ST7464AA1 in plasma, single oral dose of 120 mg/kg of ST7612AA1
Experimental: CD1 nude mice were used. Male mice were treated with a single dose of ST7612AA1 at 120 mg/10 mL/kg p.o., using 5% Solutol HS 15 in water for injection as vehicle. Blood samples were collected at 0.25, 0.5, 1, 2, 4 and 6 h post treatment from 5 animals per time point. Levels of ST7612AA1 and ST7464AA1 were determined in plasma by quantitative LC-MS/MS having a limit of quantification of 25 ng/mL. The PK parameters Cmax (maximum plasma concentration), Tmax (time of maximum plasma concentration), Clast (last quantifiable concentration), Tlast (time of last quantifiable plasma concentration), AUClast (area under the concentration vs time curve from 0 to Tlast), AUCINF (area under the concentration vs time curve from 0 to infinity), T1/2 (terminal half-life), CL/F (apparent systemic clearance) and Vz/F (apparent terminal volume of distribution) were derived from the analyte plasma concentration vs time data according to a model independent approach for sparse data sampling by using Phoenix WinNonlin® ver. 6.3 software (Pharsight, Cetara).

[4] = parameters: method as in PMID 25233084; details: mean of IC50 on HDAC1, 10 and 11; cited from earlier work
HDAC3 = test system: HDAC3; parameters: method as in PMID 25233084; details: mean of IC50 on HDAC3 and 6; cited from earlier work
HDAC11 = test system: HDAC11; parameters: method as in PMID 25233084; details: mean of IC50 on HDAC1, 10 and 11; cited from earlier work
[5] = male, CD1 nude, mouse, mean ± SEM

What does the source list for `O=C(CCCCCCC(=O)Nc1ccccc1)NO` [SAHA, suberoylanilide hydroxamic acid, reference compound]?
Acetyl H4/H4 [1]: 0,1537; Acetyl tub./tubulin [2]: 2,617

With `O=C1CC[C@H](C(=O)N[C@@H](CCCCCS)C(=O)Nc2ccccc2)N1` [ST7464AA1] as the compound, how does the IC50 (HDAC2) read?
The IC50 was 77.7 nM and 78 nM.

And the IC50 (HDAC8)?
The IC50 was 281 nM.

And the IC50 (HDAC6; HDAC6)?
The IC50 was 3.18 nM.

What about the IC50 (HDAC6; mean of IC50 on HDAC3 and 6) of the same compound?
Its IC50 is 4 nM.

And the IC50 (HDAC1; HDAC1)?
Its IC50 is 12.7 nM.

What about the IC50 (HDAC1; mean of IC50 on HDAC1, 10 and 11) of the same compound?
The IC50 was 13 nM.

What about the Tlast [3] of the same compound?
Its Tlast is 6.0 h.

And the AUC(0-inf) ([3]; male, CD1 nude, mouse)?
The AUC(0-inf) was 5510 ng·h/mL.

What about the CL/F ([3]; male, CD1 nude, mouse) of the same compound?
Its CL/F is 363 mL/min/kg.

What about the Tmax ([3]; male, CD1 nude, mouse) of the same compound?
The Tmax was 0.5 h.

What about the half-life ([3]; male, CD1 nude, mouse) of the same compound?
Its half-life is 3.8 h.

And the AUC(0-t) [3, 5]?
Its AUC(0-t) is 3750 ± 299 ng·h/mL.

And the Cmax [3, 5]?
The Cmax was 1580 ± 478 ng/mL.

What about the concentration at 6 h ([3]; male, CD1 nude, mouse, read-out: Clast) of the same compound?
Its concentration at 6 h is 303 ng/mL.

And the Vd/F ([3]; male, CD1 nude, mouse, read-out: Vz/F)?
Its Vd/F is 119 L/kg.

And the IC50 [4]?
The IC50 was 13 nM.

What about the IC50 (HDAC3) of the same compound?
The IC50 was 4 nM.

And the IC50 (HDAC11)?
The IC50 was 13 nM.
